Experimental data taken from patent US20230114728A1 (Venatorx Pharmaceuticals, Inc., priority 2019, published 2023).
Converted amounts (≈) assume the structure as drawn.

Target: A. baumannii PBP1a (Acinetobacter baumannii, UniProt A0ABX6CK30)
Assay: Bocillin-FL fluorescence polarization competition binding assay, A. baumannii PBP1a
Details: fluorescence polarization competition binding assay using Bocillin-FL; column 1; read-out: A. baumannii PBP1a Potency

Chain of A. baumannii PBP1a (A0ABX6CK30 entry or part of it): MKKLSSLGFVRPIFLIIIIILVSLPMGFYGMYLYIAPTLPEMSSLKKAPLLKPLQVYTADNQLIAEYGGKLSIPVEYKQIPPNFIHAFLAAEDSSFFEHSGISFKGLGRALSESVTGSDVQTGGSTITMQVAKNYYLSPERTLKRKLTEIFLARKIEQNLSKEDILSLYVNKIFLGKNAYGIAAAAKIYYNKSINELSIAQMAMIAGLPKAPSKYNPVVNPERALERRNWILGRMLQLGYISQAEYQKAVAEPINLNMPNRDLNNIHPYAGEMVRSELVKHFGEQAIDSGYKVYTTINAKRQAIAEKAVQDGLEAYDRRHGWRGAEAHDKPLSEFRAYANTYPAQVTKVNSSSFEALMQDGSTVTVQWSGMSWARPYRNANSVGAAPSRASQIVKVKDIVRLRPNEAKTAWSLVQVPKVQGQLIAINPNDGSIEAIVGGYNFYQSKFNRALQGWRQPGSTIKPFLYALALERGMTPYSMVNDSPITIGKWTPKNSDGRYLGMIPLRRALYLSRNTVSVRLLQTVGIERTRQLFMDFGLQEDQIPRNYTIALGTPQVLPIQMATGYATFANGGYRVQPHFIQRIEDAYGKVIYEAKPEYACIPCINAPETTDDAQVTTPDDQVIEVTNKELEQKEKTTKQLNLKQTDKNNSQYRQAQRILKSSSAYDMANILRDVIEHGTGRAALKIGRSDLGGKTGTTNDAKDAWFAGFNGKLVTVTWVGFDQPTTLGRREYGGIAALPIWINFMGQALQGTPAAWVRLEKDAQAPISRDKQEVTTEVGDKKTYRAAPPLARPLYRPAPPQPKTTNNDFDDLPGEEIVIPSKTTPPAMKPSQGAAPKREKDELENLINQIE

SMILES | EC50
CCN1CCN(C(=O)N[C@@H](C(=O)N[C@H]2Cc3cccc(C(=O)O)c3OB2O)c2c(O)cc(O)cc2F)C(=O)C1=O (single isomer, unassigned) [Example 182] | > 100 µM
CS(=O)(=O)N1CCN(C(=O)N[C@@H](C(=O)N[C@H]2Cc3ccc(F)c(C(=O)O)c3OB2O)c2cc(F)c(O)c(O)c2Cl)C1=O (single isomer, unassigned) [Example 189] | > 100 µM
O=C(NCCCN1CCN(C(=O)NC(C(=O)N[C@H]2Cc3cccc(C(=O)O)c3OB2O)c2ncc(O)cc2F)C(=O)C1=O)c1ccc(O)c(O)c1Cl (stereo partly drawn) [Example 1, (3R)-3-(2-(4-(3-(2-chloro-3,4-dihydroxybenzamido)propyl)-2,3-dioxopiperazine-1-carboxamido)-2-(3-fluoro-5-hydroxypyridin-2-yl)acetamido)-2-hydroxy-3,4-dihydro-2H-benzo[e][1,2]oxaborinine-8-carboxylic acid] | 10 to 30 µM
C[C@H]1CN(CCNC(=O)c2ccc(O)c(O)c2Cl)C(=O)C(=O)N1C(=O)NC(C(=O)N[C@H]1Cc2cccc(C(=O)O)c2OB1O)c1ncc(O)cc1F (stereo partly drawn) [Example 2, (3R)-3-(2-((S)-4-(2-(2-chloro-3,4-dihydroxybenzamido)ethyl)-6-methyl-2,3-dioxopiperazine-1-carboxamido)-2-(3-fluoro-5-hydroxypyridin-2-yl)acetamido)-2-hydroxy-3,4-dihydro-2H-benzo[e][1,2]oxaborinine-8-carboxylic acid] | 10 to 30 µM
O=C(NCCCN1CCN(C(=O)NC(C(=O)N[C@H]2Cc3ccc(F)c(C(=O)O)c3OB2O)c2ncc(O)cc2F)C(=O)C1=O)c1ccc(O)c(O)c1Cl (stereo partly drawn) [Example 3, (3R)-3-(2-(4-(3-(2-chloro-3,4-dihydroxybenzamido)propyl)-2,3-dioxopiperazine-1-carboxamido)-2-(3-fluoro-5-hydroxypyridin-2-yl)acetamido)-7-fluoro-2-hydroxy-3,4-dihydro-2H-benzo[e][1,2]oxaborinine-8-carboxylic acid] | 30 to 100 µM
O=C(NCCN1CCN(C(=O)NC(C(=O)N[C@H]2Cc3ccc(F)c(C(=O)O)c3OB2O)c2ncc(O)cc2F)C(=O)C1=O)c1c(F)cc(O)c(O)c1Cl (stereo partly drawn) [Example 5, (3R)-3-(2-(4-(2-(2-chloro-6-fluoro-3,4-dihydroxybenzamido)ethyl)-2,3-dioxopiperazine-1-carboxamido)-2-(3-fluoro-5-hydroxypyridin-2-yl)acetamido)-7-fluoro-2-hydroxy-3,4-dihydro-2H-benzo[e][1,2]oxaborinine-8-carboxylic acid] | 10 to 30 µM
NCCCN1CCN(C(=O)N[C@@H](C(=O)N[C@H]2Cc3cc(Cl)c(F)c(C(=O)O)c3OB2O)c2c(F)cc(O)c(O)c2Cl)C(=O)C1=O [Example 190, (R)-3-((R)-2-(4-(3-aminopropyl)-2,3-dioxopiperazine-1-carboxamido)-2-(2-chloro-6-fluoro-3,4-dihydroxyphenyl)acetamido)-6-chloro-7-fluoro-2-hydroxy-3,4-dihydro-2H-benzo[e][1,2]oxaborinine-8-carboxylic acid] | > 100 µM
CCN1CCN(C(=O)N[C@@H](C(=O)N[C@H]2Cc3cc(Cl)c(F)c(C(=O)O)c3OB2O)c2c(F)cc(O)c(O)c2Cl)C(=O)C1=O [Example 191, (R)-6-chloro-3-((R)-2-(2-chloro-6-fluoro-3,4-dihydroxyphenyl)-2-(4-ethyl-2,3-dioxopiperazine-1-carboxamido)acetamido)-7-fluoro-2-hydroxy-3,4-dihydro-2H-benzo[e][1,2]oxaborinine-8-carboxylic acid] | > 100 µM

System: A. baumannii IL123 (ABΔ3-ARAEcPore)
Assay: Broth microdilution MIC in iron-depleted CAMHB (IDM)
Format: cell-based
Details: Acinetobacter baumannii, read-out: Minimum Inhibitory Concentration, IL-2123
Outline: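 Colonies grow 3-5 h in iron-depleted broth at 37° C, are adjusted by OD600 to give 2-8×10^5 CFU/mL, and are added to 2-fold serial compound dilutions. After 16-20 h (Pseudomonas) or 20-24 h (Acinetobacter) at 37° C, the lowest concentration with no visible growth is the MIC.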

SMILES | MIC
O=C(NCCCN1CCN(C(=O)NC(C(=O)N[C@H]2Cc3cccc(C(=O)O)c3OB2O)c2ncc(O)cc2F)C(=O)C1=O)c1ccc(O)c(O)c1Cl (stereo partly drawn) [Example 1, (3R)-3-(2-(4-(3-(2-chloro-3,4-dihydroxybenzamido)propyl)-2,3-dioxopiperazine-1-carboxamido)-2-(3-fluoro-5-hydroxypyridin-2-yl)acetamido)-2-hydroxy-3,4-dihydro-2H-benzo[e][1,2]oxaborinine-8-carboxylic acid] | 0.5 to 1 µg/mL (≈ 0.673 to 1.35 µM)
Nc1nc(C(NC(=O)N2CCN(CCNC(=O)c3ccc(O)c(O)c3Cl)C(=O)C2=O)C(=O)N[C@H]2Cc3ccc(F)c(C(=O)O)c3OB2O)c(F)s1 (stereo partly drawn) [Example 4, (3R)-3-(2-(2-amino-5-fluorothiazol-4-yl)-2-(4-(2-(2-chloro-3,4-dihydroxybenzamido)ethyl)-2,3-dioxopiperazine-1-carboxamido)acetamido)-7-fluoro-2-hydroxy-3,4-dihydro-2H-benzo[e][1,2]oxaborinine-8-carboxylic acid] | 32 to 64 µg/mL (≈ 42.6 to 85.1 µM)
O=C(NCCN1CCN(C(=O)NC(C(=O)N[C@H]2Cc3ccc(F)c(C(=O)O)c3OB2O)c2ncc(O)cc2F)C(=O)C1=O)c1c(F)cc(O)c(O)c1Cl (stereo partly drawn) [Example 5, (3R)-3-(2-(4-(2-(2-chloro-6-fluoro-3,4-dihydroxybenzamido)ethyl)-2,3-dioxopiperazine-1-carboxamido)-2-(3-fluoro-5-hydroxypyridin-2-yl)acetamido)-7-fluoro-2-hydroxy-3,4-dihydro-2H-benzo[e][1,2]oxaborinine-8-carboxylic acid] | 2 to 4 µg/mL (≈ 2.61 to 5.23 µM)
Nc1nc(/C(=N/OC[C@H](NC(=O)c2ccc(O)c(O)c2Cl)C(=O)O)C(=O)N[C@H]2Cc3cccc(C(=O)O)c3OB2O)cs1 [Example 6, (R)-3-((Z)-2-(2-aminothiazol-4-yl)-2-(((S)-2-carboxy-2-(2-chloro-3,4-dihydroxybenzamido)ethoxy)imino)acetamido)-2-hydroxy-3,4-dihydro-2H-benzo[e][1,2]oxaborinine-8-carboxylic acid] | 32 to 64 µg/mL (≈ 50.5 to 101 µM)
